Toxic doses and inconclusive results are not listed.

The test system of this assay is P388 leukemia ip, CD2F1 mice, survival T/C. Kind of assay: NCI In Vivo Anticancer Drug Screen. Data for tumor model P388 Leukemia (intraperitoneal) in CD2F1 (CDF1) mice. The following applies: endpoint: median survival time, higher = longer survival. The method in brief: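 Mice carrying the transplanted tumor received test compound or vehicle. Survival was recorded in each group, and the value is the treated-group measurement divided by that of the vehicle-treated control group.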

[1] abbreviates: dose: 25.0 mg/kg/injection, schedule: Q01DX009 (ip), vehicle: Klucel (hydroxypropylcellulose) (HPC).
[2] abbreviates: dose: 50.0 mg/kg/injection, schedule: Q01DX005 (ip), vehicle: saline with Tween-80.
Setting [3] is: dose: 100.0 mg/kg/injection, schedule: Q01DX005 (ip), vehicle: saline with Tween-80.
Setting [4] is: dose: 200.0 mg/kg/injection, schedule: Q01DX005 (ip), vehicle: saline with Tween-80.
Where [5] appears, read: dose: 50.0 mg/kg/injection, schedule: Q01DX009 (ip), vehicle: Klucel (hydroxypropylcellulose) (HPC).
[6] abbreviates: dose: 100.0 mg/kg/injection, schedule: Q01DX009 (ip), vehicle: Klucel (hydroxypropylcellulose) (HPC).
Where [7] appears, read: dose: 60.0 mg/kg/injection, schedule: Q01DX005 (ip), vehicle: Klucel (hydroxypropylcellulose) (HPC).
[8] abbreviates: dose: 120.0 mg/kg/injection, schedule: Q01DX005 (ip), vehicle: Klucel (hydroxypropylcellulose) (HPC).
The mark [9] stands for this setting: dose: 240.0 mg/kg/injection, schedule: Q01DX005 (ip), vehicle: Klucel (hydroxypropylcellulose) (HPC).
[10] abbreviates: dose: 50.0 mg/kg/injection, schedule: Q01DX009 (ip), vehicle: saline with Tween-80.
[11] abbreviates: dose: 100.0 mg/kg/injection, schedule: Q01DX009 (ip), vehicle: saline with Tween-80.
Where [12] appears, read: dose: 200.0 mg/kg/injection, schedule: Q01DX009 (ip), vehicle: saline with Tween-80.
Where [13] appears, read: dose: 60.0 mg/kg/injection, schedule: Q01DX005 (ip), vehicle: saline.
The mark [14] stands for this setting: dose: 120.0 mg/kg/injection, schedule: Q01DX005 (ip), vehicle: saline.

In the case of `N#CC(C#N)=C/C=C/c1cccc([N+](=O)[O-])c1`, the T/C reads like this: (dose: 3.12 mg/kg/injection, schedule: Q01DX009 (ip), vehicle: Klucel (hydroxypropylcellulose) (HPC)) 114 % of control; (dose: 6.25 mg/kg/injection, schedule: Q01DX009 (ip), vehicle: Klucel (hydroxypropylcellulose) (HPC)) 123 % of control; (dose: 8.2 mg/kg/injection, schedule: Q01DX009 (ip), vehicle: Klucel (hydroxypropylcellulose) (HPC)) 118 % of control; under setting [1], 100 % of control.

For the compound `CCCCCCCCn1nnnc1C(F)(F)F`, the T/C runs as follows: under setting [2], 100 % of control; under setting [3], 102 % of control; under setting [4], 102 % of control.

Take `N=C(N)c1ccc2oc(/C=C/c3cc4ccc(C(=N)N)cc4o3)cc2c1`: where the note is “dose: 400.0 mg/kg/injection, schedule: Q04DX003 (ip), vehicle: suspension in saline”, the T/C was 150 % of control.

With `COc1ccc(C(CC(=O)c2ccccc2)[Se]c2ccccc2)cc1` (centres undefined), the T/C reads like this: under setting [1], 105 % of control; under setting [5], 106 % of control; under setting [6], 105 % of control.

On to `OCc1cc2ccccc2c2c1OCCOCCOCCOCCOCCOc1ccc3ccccc3c1-2`, for which the T/C is, setting by setting: (dose: 100.0 mg/kg/injection, schedule: Q04DX002 (ip), vehicle: saline with Tween-80) 104 % of control; (dose: 200.0 mg/kg/injection, schedule: Q04DX002 (ip), vehicle: saline with Tween-80) 99 % of control; (dose: 400.0 mg/kg/injection, schedule: Q04DX002 (ip), vehicle: saline with Tween-80) 107 % of control.

Regarding `OC1C(O)C(O)C(O)C(O)C1O.[Cu+2].[Cu]` (centres undefined), the T/C is 93 % of control (dose: 3.12 mg/kg/injection, schedule: Q01DX005 (ip), vehicle: Klucel (hydroxypropylcellulose) (HPC)); 93 % of control (dose: 6.25 mg/kg/injection, schedule: Q01DX005 (ip), vehicle: Klucel (hydroxypropylcellulose) (HPC)); 94 % of control (dose: 12.5 mg/kg/injection, schedule: Q01DX005 (ip), vehicle: Klucel (hydroxypropylcellulose) (HPC)); 100 % of control (dose: 25.0 mg/kg/injection, schedule: Q01DX005 (ip), vehicle: Klucel (hydroxypropylcellulose) (HPC)).

Turning to `COC(=O)Nc1cn2ccsc2n1`, the T/C is 105 % of control under setting [2], 102 % of control under setting [3] and 105 % of control under setting [4].

For the compound `CC1=C(CC/C(C)=C/CC[C@@]2(C)CC[C@H](C(C)C(=O)O)OO2)C(C)(C)CCC1` (some centres undefined), the T/C was 97 % of control (dose: 4.38 mg/kg/injection, schedule: Q01DX005 (ip), vehicle: saline + Tween-80 + alcohol); 102 % of control (dose: 8.75 mg/kg/injection, schedule: Q01DX005 (ip), vehicle: saline + Tween-80 + alcohol); 94 % of control (dose: 17.5 mg/kg/injection, schedule: Q01DX005 (ip), vehicle: saline + Tween-80 + alcohol); 94 % of control (dose: 35.0 mg/kg/injection, schedule: Q01DX005 (ip), vehicle: saline + Tween-80 + alcohol).

Consider `COc1ccc(C2OC3=C(Nc4ccccc4N3)C2=O)cc1` (centres undefined), for which the T/C was 97 % of control under setting [7], 97 % of control under setting [8] and 98 % of control under setting [9].

With `CCOC(=O)CC(C)=NCCN=C(C)CC(=O)OCC`, the T/C is 104 % of control under setting [10], 106 % of control under setting [11] and 111 % of control under setting [12].

`Cn1cnc([N+](=O)[O-])c1Sc1cn(C2CC(O)C(CO)O2)c(=O)[nH]c1=O` (centres undefined): the T/C runs as follows: under setting [7], 101 % of control; under setting [8], 102 % of control; under setting [9], 107 % of control.

With `O=C(Nc1cc(S(=O)(=O)O)cc2cc(S(=O)(=O)O)c(N=Nc3cc(Nc4nc(Cl)nc(Nc5ccc(S(=O)(=O)O)cc5)n4)ccc3S(=O)(=O)O)c(O)c12)c1ccccc1`, the T/C was 106 % of control under setting [13] and 102 % of control under setting [14].

`OCC1=C(CO)CC2=C(CC=CC2)C1`: the T/C is 100 % of control (dose: 50.0 mg/kg/injection, schedule: Q01DX005 (ip), vehicle: Klucel (hydroxypropylcellulose) (HPC)); 99 % of control (dose: 100.0 mg/kg/injection, schedule: Q01DX005 (ip), vehicle: Klucel (hydroxypropylcellulose) (HPC)); 97 % of control (dose: 200.0 mg/kg/injection, schedule: Q01DX005 (ip), vehicle: Klucel (hydroxypropylcellulose) (HPC)).

With `Cc1ccc(N=Nc2c(O)n(-c3ccccc3C)c(=S)n(-c3ccccc3Cl)c2=O)cc1`, the T/C by setting is: (dose: 100.0 mg/kg/injection, schedule: Q01DX001 (ip), vehicle: Klucel (hydroxypropylcellulose) (HPC)) 101 % of control; (dose: 200.0 mg/kg/injection, schedule: Q01DX001 (ip), vehicle: Klucel (hydroxypropylcellulose) (HPC)) 103 % of control; (dose: 400.0 mg/kg/injection, schedule: Q01DX001 (ip), vehicle: Klucel (hydroxypropylcellulose) (HPC)) 104 % of control.

`O=C1C(=Cc2ccc(Cl)cc2)C(=O)N(c2ccccc2)C(=S)N1c1ccccc1`: the T/C is 101 % of control (dose: 100.0 mg/kg/injection, schedule: Q04DX002 (ip), vehicle: Klucel (hydroxypropylcellulose) (HPC)); 93 % of control (dose: 200.0 mg/kg/injection, schedule: Q04DX002 (ip), vehicle: Klucel (hydroxypropylcellulose) (HPC)); 89 % of control (dose: 400.0 mg/kg/injection, schedule: Q04DX002 (ip), vehicle: Klucel (hydroxypropylcellulose) (HPC)).

Regarding `NC(=O)CNCC1Cc2ccccc21` (centres undefined), the T/C under setting [13] was 102 % of control and the T/C under setting [14] is 98 % of control.

For the compound `C1=CCC2COCC2C1` (centres undefined), the T/C is, setting by setting: under setting [10], 98 % of control; under setting [11], 102 % of control; under setting [12], 100 % of control.

With `O=c1c(Cl)c(Cl)cnn1-c1ccccc1`, the T/C is 100 % of control (dose: 25.0 mg/kg/injection, schedule: Q01DX001 (ip), vehicle: saline with Tween-80); 118 % of control (dose: 50.0 mg/kg/injection, schedule: Q01DX001 (ip), vehicle: saline with Tween-80); 111 % of control (dose: 100.0 mg/kg/injection, schedule: Q01DX001 (ip), vehicle: saline with Tween-80); 111 % of control (dose: 200.0 mg/kg/injection, schedule: Q01DX001 (ip), vehicle: saline with Tween-80).

In the case of `Cc1ccc2c(c1)sc1n[nH]c(=O)n12`, the T/C by setting is: under setting [5], 100 % of control; under setting [6], 105 % of control.

For `CC(C)C(=O)c1ccco1`, the T/C is, setting by setting: (dose: 3.13 mg/kg/injection, schedule: Q01DX009 (ip), vehicle: saline with Tween-80) 90 % of control; (dose: 6.25 mg/kg/injection, schedule: Q01DX009 (ip), vehicle: saline with Tween-80) 100 % of control; (dose: 12.5 mg/kg/injection, schedule: Q01DX009 (ip), vehicle: saline with Tween-80) 100 % of control.

(Values after PubChem BioAssay AID330 (DTP/NCI, 2004).)
